Measured values taken from US4673670A, “N^6 -acenaphthyl adenosines and analogs thereof” (Warner-Lambert Company, priority 1986, dated 1987).

System: conscious rat
Assay: Antihypertensive evaluation (AHP3): aortic blood pressure and heart rate from conscious rats
Type: in vivo
Conditions: hour 1
From the text: This test procedure is described in the following paragraphs.
A Method for the Direct Monitoring of Aortic Blood Pressure and Heart Rate from Conscious Rats
The continuous monitoring of pulsatile blood pressure (BP) from unrestrained conscious rats surgically equipped with polyethylene cannulas was accomplished by means of a computer assisted data capture scheme (CADCS). The basic elements of the methodology are the cannulation procedure and the CADCS.
Cannulation Procedure: Rats were anesthetized with Telazol (1:1 tiletamine HCl and zolazepam HCl); 20-40 mg/kg IM and the descending aorta exposed via a midline incision. Cannulas fabricated from polyethylene tubing were inserted into the aorta via an undersized puncture hole below the renal arteries. The puncture hole was made by a 23 G disposable needle with a section of the aorta clamped off above and below the puncture site. The cannulas, consisting of a PE100 (0.86 mm ID) body and a PE50 (0.58 mm ID) tip, were attached to a trocar, inserted through the psoas muscle, and passed subcutaneously along the midline of the back and externalized between the ears. […]
CADCS: The pulsatile blood pressure and heart rate of each of 32 rats was monitored every minute by means of two in-laboratory microcomputers communicating directly with a data concentrator computer. […]

Compound | HR (heart rate) increase (10 mg/kg, ↑ = increase) | MAP (mean arterial pressure) decrease (30 mg/kg, ↓ = decrease)
OC[C@H]1O[C@@H](n2cnc3c(NCC4=Cc5cccc6cccc4c56)ncnc32)[C@H](O)[C@@H]1O [Example 2, N^6-(1-acenaphthylenylmethyl)adenosine] | 0% | 
OC[C@H]1O[C@@H](n2cnc3c(NC4Cc5cccc6cccc4c56)ncnc32)[C@H](O)[C@@H]1O (some centres unmarked) [Example 1, N^6 -Acenaphthyladenosine] |  | 30%
